Where “and” joins values, the source holds several entries; their conditions need not be identical. Equal values may be shown once. Inconclusive results are not listed.
Test system: BDF1 mice, M5076 sarcoma s.c., survival/tumor T/C
Experiment: NCI In Vivo Anticancer Drug Screen. Data for tumor model Sarcoma M5076 (subcutaneous) in B6D2F1 (BDF1) mice
Experimental: The antitumor activity of compounds was measured in mice bearing transplantable tumors. Survival or tumor size were measured and the results are expressed as the measurement made in the treated group (T) divided by the measurement made in the vehicle treated control group (C). The tumor model used in this assay is Sarcoma M5076 (subcutaneous) in B6D2F1 (BDF1) mice

Structure (SMILES): Cc1ccc(S(=O)(=O)N/N=C/C(Br)=C(/Br)C(=O)O)cc1
- T/C (endpoint: median survival time, dose: 0.62 mg/kg/injection, schedule: Q04DX003 (ip), vehicle: saline, higher = longer survival): 99 % of control
- T/C (endpoint: median survival time, dose: 1.25 mg/kg/injection, schedule: Q04DX003 (ip), vehicle: saline, higher = longer survival): 101 % of control
- T/C (endpoint: median survival time, dose: 2.5 mg/kg/injection, schedule: Q04DX003 (ip), vehicle: saline, higher = longer survival): 99 % of control and 96 % of control
- T/C (endpoint: median survival time, dose: 5.0 mg/kg/injection, schedule: Q04DX003 (ip), vehicle: saline, higher = longer survival): 109 % of control and 92 % of control
- T/C (endpoint: median survival time, dose: 7.5 mg/kg/injection, schedule: Q04DX003 (ip), vehicle: saline, higher = longer survival): 83 % of control
- T/C (endpoint: median survival time, dose: 11.3 mg/kg/injection, schedule: Q04DX003 (ip), vehicle: saline, higher = longer survival): 88 % of control

Structure (SMILES): NCCNCC(O)CO (stereo unspecified)
- T/C (endpoint: median survival time, dose: 50.0 mg/kg/injection, schedule: Q01DX009 (ip), vehicle: saline, higher = longer survival): 90 % of control
- T/C (endpoint: median survival time, dose: 100.0 mg/kg/injection, schedule: Q01DX009 (ip), vehicle: saline, higher = longer survival): 112 % of control
- T/C (endpoint: median survival time, dose: 200.0 mg/kg/injection, schedule: Q01DX009 (ip), vehicle: saline, higher = longer survival): 105 % of control
- T/C (endpoint: median tumor weight (est.), dose: 100.0 mg/kg/injection, schedule: Q01DX009 (ip), vehicle: saline, higher = larger tumour): 76 % of control
- T/C (endpoint: median tumor weight (est.), dose: 200.0 mg/kg/injection, schedule: Q01DX009 (ip), vehicle: saline, higher = larger tumour): 115 % of control

Structure (SMILES): COc1cc2cc3c4cc(OC)c(OC)cc4cc[n+]3c(C)c2cc1OC (tested in a mixture with another compound)
- T/C (endpoint: mean tumor weight, dose: 37.5 mg/kg/injection, schedule: Q02DX011 (ip), vehicle: saline, higher = larger tumour): 64 % of control
- T/C (endpoint: mean tumor weight, dose: 75.0 mg/kg/injection, schedule: Q02DX011 (ip), vehicle: saline, higher = larger tumour): 45 % of control
- T/C (endpoint: mean tumor weight, dose: 150.0 mg/kg/injection, schedule: Q02DX011 (ip), vehicle: saline, higher = larger tumour): 13 % of control

Structure (SMILES): O=C(N/N=C\c1cc(Br)cc(Br)c1O)N/N=C/c1cc(Br)cc(Br)c1O
- T/C (endpoint: median survival time, dose: 200.0 mg/kg/injection, schedule: Q04DX003 (ip), vehicle: saline with Tween-80, higher = longer survival): 111 % of control
- T/C (endpoint: median survival time, dose: 400.0 mg/kg/injection, schedule: Q04DX003 (ip), vehicle: saline with Tween-80, higher = longer survival): 112 % of control
- T/C (endpoint: median survival time, dose: 800.0 mg/kg/injection, schedule: Q04DX003 (ip), vehicle: saline with Tween-80, higher = longer survival): 97 % of control

Structure (SMILES): C[C@@]12C(=O)OC(=O)[C@]1(C)[C@H]1CC[C@@H]2O1
- T/C (endpoint: median survival time, dose: 0.1 mg/kg/injection, schedule: Q01DX009 (ip), vehicle: acetone, higher = longer survival): 94 % of control
- T/C (endpoint: median survival time, dose: 0.2 mg/kg/injection, schedule: Q01DX009 (ip), vehicle: acetone, higher = longer survival): 106 % of control
- T/C (endpoint: median survival time, dose: 0.4 mg/kg/injection, schedule: Q01DX009 (ip), vehicle: acetone, higher = longer survival): 101 % of control
- T/C (endpoint: median survival time, dose: 0.8 mg/kg/injection, schedule: Q01DX009 (ip), vehicle: acetone, higher = longer survival): 89 % of control
- T/C (endpoint: median tumor weight (est.), dose: 0.1 mg/kg/injection, schedule: Q01DX009 (ip), vehicle: acetone, higher = larger tumour): 117 % of control
- T/C (endpoint: median tumor weight (est.), dose: 0.2 mg/kg/injection, schedule: Q01DX009 (ip), vehicle: acetone, higher = larger tumour): 64 % of control
- T/C (endpoint: median tumor weight (est.), dose: 0.4 mg/kg/injection, schedule: Q01DX009 (ip), vehicle: acetone, higher = larger tumour): 109 % of control
- T/C (endpoint: median tumor weight (est.), dose: 0.8 mg/kg/injection, schedule: Q01DX009 (ip), vehicle: acetone, higher = larger tumour): 90 % of control

Structure (SMILES): COC1CC2C=C(C)/C=C/C=C/C(=O)NC(c3ccccc3)C/C=C/CCC(O)CC(=O)C2=C1O (stereo unspecified)
- T/C (endpoint: median survival time, dose: 1.0 mg/kg/injection, schedule: Q01DX009 (ip), vehicle: Klucel (hydroxypropylcellulose) (HPC), higher = longer survival): 100 % of control
- T/C (endpoint: median survival time, dose: 2.0 mg/kg/injection, schedule: Q01DX009 (ip), vehicle: Klucel (hydroxypropylcellulose) (HPC), higher = longer survival): 100 % of control
- T/C (endpoint: median survival time, dose: 4.0 mg/kg/injection, schedule: Q01DX009 (ip), vehicle: Klucel (hydroxypropylcellulose) (HPC), higher = longer survival): 100 % of control
- T/C (endpoint: median tumor weight (est.), dose: 1.0 mg/kg/injection, schedule: Q01DX009 (ip), vehicle: Klucel (hydroxypropylcellulose) (HPC), higher = larger tumour): 77 % of control
- T/C (endpoint: median tumor weight (est.), dose: 2.0 mg/kg/injection, schedule: Q01DX009 (ip), vehicle: Klucel (hydroxypropylcellulose) (HPC), higher = larger tumour): 109 % of control
- T/C (endpoint: median tumor weight (est.), dose: 4.0 mg/kg/injection, schedule: Q01DX009 (ip), vehicle: Klucel (hydroxypropylcellulose) (HPC), higher = larger tumour): 82 % of control

Structure (SMILES): CC1CCC(NC(=O)N(CCF)N=O)CC1 (stereo unspecified)
- T/C (endpoint: median survival time, dose: 30.0 mg/kg/injection, schedule: Q01DX003 (ip), vehicle: saline with Tween-80, higher = longer survival): 157 % of control
- T/C (endpoint: median survival time, dose: 50.0 mg/kg/injection, schedule: Q01DX001 (ip), vehicle: saline with Tween-80, higher = longer survival): 152 % of control

Structure (SMILES): CC1(C)OC(C)(C)c2c1nnc(-c1ccccc1[N+](=O)[O-])[n+]2[O-]
- T/C (endpoint: median survival time, dose: 50.0 mg/kg/injection, schedule: Q01DX009 (ip), vehicle: saline with Tween-80, higher = longer survival): 108 % of control
- T/C (endpoint: median survival time, dose: 100.0 mg/kg/injection, schedule: Q01DX009 (ip), vehicle: saline with Tween-80, higher = longer survival): 99 % of control
- T/C (endpoint: median survival time, dose: 200.0 mg/kg/injection, schedule: Q01DX009 (ip), vehicle: saline with Tween-80, higher = longer survival): 103 % of control
- T/C (endpoint: median tumor weight (est.), dose: 50.0 mg/kg/injection, schedule: Q01DX009 (ip), vehicle: saline with Tween-80, higher = larger tumour): 70 % of control
- T/C (endpoint: median tumor weight (est.), dose: 100.0 mg/kg/injection, schedule: Q01DX009 (ip), vehicle: saline with Tween-80, higher = larger tumour): 110 % of control
- T/C (endpoint: median tumor weight (est.), dose: 200.0 mg/kg/injection, schedule: Q01DX009 (ip), vehicle: saline with Tween-80, higher = larger tumour): 67 % of control

Structure (SMILES): COc1ccc(Cl)[n+]([O-])n1
- T/C (endpoint: median survival time, dose: 50.0 mg/kg/injection, schedule: Q04DX003 (ip), vehicle: Klucel (hydroxypropylcellulose) (HPC), higher = longer survival): 100 % of control
- T/C (endpoint: median survival time, dose: 100.0 mg/kg/injection, schedule: Q04DX003 (ip), vehicle: Klucel (hydroxypropylcellulose) (HPC), higher = longer survival): 100 % of control
